According to US10766903B2 (ALMAC DISCOVERY LIMITED, priority 2016, dated 2020):

These molecules were tested against USP7 (Homo sapiens (Human), UniProt Q93009) (assay: USP7 fluorescence polarisation (FP) biochemical assay, ubiquitin-Lys-TAMRA substrate). Settings: Table 4, biochemical assay; average of at least duplicate experiments; read-out: USP7 IC50.
In short: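 Full-length His6-USP7 (2.5 nM) incubated ± inhibitor (8-point dilutions, 200 to 0.1 μM before addition) in 50 mM HEPES pH 7.2, 150 mM NaCl, 0.5 mM EDTA, 5 mM DTT, 0.05% BSA, 0.05% CHAPS. Ubiquitin-Lys-TAMRA cleavage followed by FP (ex 530/em 575 nm) every 15 min for 1.5 h; normalised to no-compound control.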

Sequence of USP7 (Q93009 whole entry): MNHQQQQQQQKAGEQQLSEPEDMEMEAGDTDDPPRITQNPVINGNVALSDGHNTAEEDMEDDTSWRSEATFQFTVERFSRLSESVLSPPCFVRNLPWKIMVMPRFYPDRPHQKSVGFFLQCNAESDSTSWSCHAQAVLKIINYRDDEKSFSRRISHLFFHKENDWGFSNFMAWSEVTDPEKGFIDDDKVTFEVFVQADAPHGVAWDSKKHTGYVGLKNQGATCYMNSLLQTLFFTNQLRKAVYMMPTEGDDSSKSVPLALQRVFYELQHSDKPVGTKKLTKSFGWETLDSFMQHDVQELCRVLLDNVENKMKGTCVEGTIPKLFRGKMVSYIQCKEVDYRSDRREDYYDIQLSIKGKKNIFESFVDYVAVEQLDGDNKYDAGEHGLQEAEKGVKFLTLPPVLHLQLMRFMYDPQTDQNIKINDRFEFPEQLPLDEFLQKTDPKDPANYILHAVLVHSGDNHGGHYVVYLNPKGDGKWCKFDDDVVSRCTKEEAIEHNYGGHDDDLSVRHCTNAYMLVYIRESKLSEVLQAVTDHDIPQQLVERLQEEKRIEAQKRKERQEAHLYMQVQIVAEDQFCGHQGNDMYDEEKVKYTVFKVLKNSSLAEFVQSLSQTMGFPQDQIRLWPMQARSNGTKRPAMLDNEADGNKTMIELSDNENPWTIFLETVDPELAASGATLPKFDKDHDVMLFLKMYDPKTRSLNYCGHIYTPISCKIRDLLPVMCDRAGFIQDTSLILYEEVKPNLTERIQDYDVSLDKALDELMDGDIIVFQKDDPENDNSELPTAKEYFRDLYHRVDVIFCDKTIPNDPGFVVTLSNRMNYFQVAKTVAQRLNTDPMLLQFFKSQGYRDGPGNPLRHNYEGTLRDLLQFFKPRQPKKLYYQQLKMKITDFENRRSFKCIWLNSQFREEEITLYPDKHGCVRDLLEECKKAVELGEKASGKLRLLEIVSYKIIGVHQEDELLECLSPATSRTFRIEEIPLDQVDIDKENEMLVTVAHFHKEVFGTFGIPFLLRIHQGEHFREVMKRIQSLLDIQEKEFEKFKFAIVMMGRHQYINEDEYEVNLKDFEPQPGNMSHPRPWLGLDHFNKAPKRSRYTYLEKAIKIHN

`Cn1nccc1-c1cccc(-n2c(Cl)cc3c(=O)n(CC4(O)CCN(C(=O)c5cnc(C6CC6)o5)CC4)cnc32)c1` [Example 210, 6-Chloro-3-((1-(2-cyclopropyloxazole-5-carbonyl)-4-hydroxypiperidin-4-yl)methyl)-7-(3-(1-methyl-1H-pyrazol-5-yl)phenyl)-3H-pyrrolo[2,3-d]pyrimidin-4(7H)-one] and `Cn1nccc1-c1cc(-n2c(Cl)cc3c(=O)n(CC4(O)CCN(C(=O)c5cnc(C6CC6)o5)CC4)cnc32)ccc1F` [Example 230, 6-Chloro-3-((1-(2-cyclopropyloxazole-5-carbonyl)-4-hydroxypiperidin-4-yl)methyl)-7-(4-fluoro-3-(1-methyl-1H-pyrazol-5-yl)phenyl)-3H-pyrrolo[2,3-d]pyrimidin-4(7H)-one] fall in the same range of IC50: 250 to 999 nM for the first, 250 to 999 nM for the second.

`Cn1cc(-c2cccc(-n3c(Cl)cc4c(=O)n(CC5(O)CCN(C(=O)c6cnc(C7CC7)o6)CC5)cnc43)c2)cn1` [Example 211, 6-Chloro-3-((1-(2-cyclopropyloxazole-5-carbonyl)-4-hydroxypiperidin-4-yl)methyl)-7-(3-(1-methyl-1H-pyrazol-4-yl)phenyl)-3H-pyrrolo[2,3-d]pyrimidin-4(7H)-one] and `Cn1cc(-c2cc(-n3c(Cl)cc4c(=O)n(CC5(O)CCN(C(=O)c6cnc(C7CC7)o6)CC5)cnc43)ccc2F)cn1` [Example 232, 6-Chloro-3-((1-(2-cyclopropyloxazole-5-carbonyl)-4-hydroxypiperidin-4-yl)methyl)-7-(4-fluoro-3-(1-methyl-1H-pyrazol-4-yl)phenyl)-3H-pyrrolo[2,3-d]pyrimidin-4(7H)-one] cannot be ordered by IC50: less than 250 nM for the first, less than 250 nM for the second.

`O=C(c1cnc(C2CC2)o1)N1CCC(O)(Cn2cnc3c(cc(Cl)n3-c3cccc(Br)c3)c2=O)CC1` [Example 213, 7-(3-Bromophenyl)-6-chloro-3-((1-(2-cyclopropyloxazole-5-carbonyl)-4-hydroxypiperidin-4-yl)methyl)-3H-pyrrolo[2,3-d]pyrimidin-4(7H)-one] and `O=C(c1cnc(C2CC2)o1)N1CCC(O)(Cn2cnc3c(cc(Cl)n3-c3cccc(C4CC4)c3)c2=O)CC1` [Example 217, 6-Chloro-3-((1-(2-cyclopropyloxazole-5-carbonyl)-4-hydroxypiperidin-4-yl)methyl)-7-(3-cyclopropylphenyl)-3H-pyrrolo[2,3-d]pyrimidin-4(7H)-one] cannot be ordered by IC50: less than 250 nM for the first, less than 250 nM for the second.

First: CC1(C(=O)N2CCC(O)(Cn3cnc4c(cc(Cl)n4-c4cccc(Br)c4)c3=O)CC2)CC1 [Example 214, 7-(3-Bromophenyl)-6-chloro-3-((4-hydroxy-1-(1-methylcyclopropanecarbonyl)piperidin-4-yl)methyl)-3H-pyrrolo[2,3-d]pyrimidin-4(7H)-one]
Second: CC1(C(=O)N2CCC(O)(Cn3cnc4c(cc(Cl)n4-c4cccc(C5CC5)c4)c3=O)CC2)CC1 [Example 218, 6-Chloro-7-(3-cyclopropylphenyl)-3-((4-hydroxy-1-(1-methylcyclopropanecarbonyl)piperidin-4-yl)methyl)-3H-pyrrolo[2,3-d]pyrimidin-4(7H)-one]
The IC50 of the first is higher: 250 to 999 nM for the first, less than 250 nM for the second.

`O=C(c1cnc(C2CC2)o1)N1CCC(O)(Cn2cnc3c(cc(Cl)n3-c3ccccc3)c2=O)CC1` [Example 215, 6-Chloro-3-((1-(2-cyclopropyloxazole-5-carbonyl)-4-hydroxypiperidin-4-yl)methyl)-7-phenyl-3H-pyrrolo[2,3-d]pyrimidin-4(7H)-one] and `O=C(c1cnc(C2CC2)o1)N1CCC(O)(Cn2cnc3c(cc(Br)n3-c3ccccc3)c2=O)CC1` [Example 222, 6-Bromo-3-((1-(2-cyclopropyloxazole-5-carbonyl)-4-hydroxypiperidin-4-yl)methyl)-7-phenyl-3H-pyrrolo[2,3-d]pyrimidin-4(7H)-one] cannot be ordered by IC50: less than 250 nM for the first, less than 250 nM for the second.

`Cn1cc(C(=O)N2CCC(O)(Cn3cnc4c(cc(Cl)n4-c4ccccc4)c3=O)CC2)cn1` [Example 216, 6-Chloro-3-((4-hydroxy-1-(1-methyl-1H-pyrazole-4-carbonyl)piperidin-4-yl)methyl)-7-phenyl-3H-pyrrolo[2,3-d]pyrimidin-4(7H)-one] and `Cn1cc(C(=O)N2CCC(O)(Cn3cnc4c(cc(Cl)n4-c4ccc(Cl)cc4)c3=O)CC2)cn1` [Example 229, 6-Chloro-7-(4-chlorophenyl)-3-((4-hydroxy-1-(1-methyl-1H-pyrazole-4-carbonyl)piperidin-4-yl)methyl)-3H-pyrrolo[2,3-d]pyrimidin-4(7H)-one] fall in the same range of IC50: 250 to 999 nM for the first, 250 to 999 nM for the second.

`Cn1cc(C(=O)N2CCC(O)(Cn3cnc4c(cc(Cl)n4-c4cccc(C5CC5)c4)c3=O)CC2)cn1` [Example 219, 6-Chloro-7-(3-cyclopropylphenyl)-3-((4-hydroxy-1-(1-methyl-1H-pyrazole-4-carbonyl)piperidin-4-yl)methyl)-3H-pyrrolo[2,3-d]pyrimidin-4(7H)-one] and `Cn1cc(-c2cc(-n3c(Cl)cc4c(=O)n(CC5(O)CCN(C(=O)C6(C)CC6)CC5)cnc43)ccc2F)cn1` [Example 233, 6-Chloro-7-(4-fluoro-3-(1-methyl-1H-pyrazol-4-yl)phenyl)-3-((4-hydroxy-1-(1-methylcyclopropanecarbonyl)piperidin-4-yl)methyl)-3H-pyrrolo[2,3-d]pyrimidin-4(7H)-one] cannot be ordered by IC50: less than 250 nM for the first, less than 250 nM for the second.

`CC1(C(=O)N2CCC(O)(Cn3cnc4c(cc(Cl)n4-c4ccc(C5CC5)cc4)c3=O)CC2)CC1` [Example 220, 6-Chloro-7-(4-cyclopropylphenyl)-3-((4-hydroxy-1-(1-methylcyclopropanecarbonyl)piperidin-4-yl)methyl)-3H-pyrrolo[2,3-d]pyrimidin-4(7H)-one] and `O=C(c1cnc(C2CC2)o1)N1CCC(O)(Cn2cnc3c(cc(Cl)n3-c3ccc(C4CC4)cc3)c2=O)CC1` [Example 221, 6-Chloro-3-((1-(2-cyclopropyloxazole-5-carbonyl)-4-hydroxypiperidin-4-yl)methyl)-7-(4-cyclopropylphenyl)-3H-pyrrolo[2,3-d]pyrimidin-4(7H)-one] cannot be ordered by IC50: less than 250 nM for the first, less than 250 nM for the second.

`CC1(C(=O)N2CCC(O)(Cn3cnc4c(cc(Br)n4-c4ccccc4)c3=O)CC2)CC1` [Example 223, 6-Bromo-3-((4-hydroxy-1-(1-methylcyclopropanecarbonyl)piperidin-4-yl)methyl)-7-phenyl-3H-pyrrolo[2,3-d]pyrimidin-4(7H)-one] and `CC1(C(=O)N2CCC(O)(Cn3cnc4c(cc(C#N)n4-c4ccccc4)c3=O)CC2)CC1` [Example 234, 3-((4-Hydroxy-1-(1-methylcyclopropanecarbonyl)piperidin-4-yl)methyl)-4-oxo-7-phenyl-4,7-dihydro-3H-pyrrolo[2,3-d]pyrimidine-6-carbonitrile] cannot be ordered by IC50: less than 250 nM for the first, less than 250 nM for the second.

`O=C(c1cnc(C2CC2)o1)N1CCC(O)(Cn2cnc3c(cc(I)n3-c3ccccc3)c2=O)CC1` [Example 224, 3-((1-(2-Cyclopropyloxazole-5-carbonyl)-4-hydroxypiperidin-4-yl)methyl)-6-iodo-7-phenyl-3H-pyrrolo[2,3-d]pyrimidin-4(7H)-one] and `O=C(c1cnc(C2CC2)o1)N1CCC(O)(Cn2cnc3c(cc(Cl)n3-c3ccc(Cl)cc3)c2=O)CC1` [Example 228, 6-Chloro-7-(4-chlorophenyl)-3-((1-(2-cyclopropyloxazole-5-carbonyl)-4-hydroxypiperidin-4-yl)methyl)-3H-pyrrolo[2,3-d]pyrimidin-4(7H)-one] cannot be ordered by IC50: less than 250 nM for the first, less than 250 nM for the second.

Compared with `CC1(C(=O)N2CCC(O)(Cn3cnc4c(cc(Cl)n4-c4cccc(-n5cc(C(F)(F)F)cn5)c4)c3=O)CC2)CC1` [Example 225, 6-Chloro-3-((4-hydroxy-1-(1-methylcyclopropanecarbonyl)piperidin-4-yl)methyl)-7-(3-(4-(trifluoromethyl)-1H-pyrazol-1-yl)phenyl)-3H-pyrrolo[2,3-d]pyrimidin-4(7H)-one], `CC1(C(=O)N2CCC(O)(Cn3cnc4c(cc(Cl)n4-c4cccc(-n5cc(F)cn5)c4)c3=O)CC2)CC1` [Example 227, 6-Chloro-7-(3-(4-fluoro-1H-pyrazol-1-yl)phenyl)-3-((4-hydroxy-1-(1-methylcyclopropanecarbonyl)piperidin-4-yl)methyl)-3H-pyrrolo[2,3-d]pyrimidin-4(7H)-one] is lower in IC50: 1000 to 200000 nM for the first, less than 250 nM for the second.

`CC1(C(=O)N2CCC(O)(Cn3cnc4c(cc(Cl)n4-c4cccc(N5CCOCC5)c4)c3=O)CC2)CC1` [Example 226, 6-Chloro-3-((4-hydroxy-1-(1-methylcyclopropanecarbonyl)piperidin-4-yl)methyl)-7-(3-morpholinophenyl)-3H-pyrrolo[2,3-d]pyrimidin-4(7H)-one] and `[2H]C1([2H])Oc2ccc(-n3c(Cl)cc4c(=O)n(CC5(O)CCN(C(=O)C6(C)CC6)CC5)cnc43)cc2O1` [Example 235, 7-(Benzo[d][1,3]dioxol-5-yl-2,2-d2)-6-chloro-3-((4-hydroxy-1-(1-methylcyclopropane-1-carbonyl)piperidin-4-yl)methyl)-3,7-dihydro-4H-pyrrolo[2,3-d]pyrimidin-4-one] cannot be ordered by IC50: less than 250 nM for the first, less than 250 nM for the second.

Compared with `Cn1nccc1-c1cc(-n2c(Cl)cc3c(=O)n(CC4(O)CCN(C(=O)C5(C)CC5)CC4)cnc32)ccc1F` [Example 231, 6-Chloro-7-(4-fluoro-3-(1-methyl-1H-pyrazol-5-yl)phenyl)-3-((4-hydroxy-1-(1-methylcyclopropanecarbonyl)piperidin-4-yl)methyl)-3H-pyrrolo[2,3-d]pyrimidin-4(7H)-one], `[2H]C1([2H])Oc2ccc(-n3c(Cl)cc4c(=O)n(CC5(O)CCN(C(=O)c6cnc(C7CC7)o6)CC5)cnc43)cc2O1` [Example 236, 7-(Benzo[d][1,3]dioxol-5-yl-2,2-d2)-6-chloro-3-((1-(2-cyclopropyloxazole-5-carbonyl)-4-hydroxypiperidin-4-yl)methyl)-3,7-dihydro-4H-pyrrolo[2,3-d]pyrimidin-4-one] is lower in IC50: 250 to 999 nM for the first, less than 250 nM for the second.

`Cn1nc2c(=O)n(CC3(O)CCN(C(=O)C4(C)CC4)CC3)cnc2c1-c1ccc(CN)cc1` [Example 237, 3-(4-(Aminomethyl)phenyl)-6-((4-hydroxy-1-(1-methylcyclopropane-1-carbonyl)piperidin-4-yl)methyl)-2-methyl-2,6-dihydro-7H-pyrazolo[4,3-d]pyrimidin-7-one] gave an IC50 of 1000 to 200000 nM.
